Data set [1] in a line: Determination of half-life in SD rats (IV and PO, plasma LC-MS/MS). Conditions: Sprague-Dawley (SD), rat.
Experimental: Avanafil as control drug and the compounds of the present invention (self-made) were dissolved with suitable solvents.
Instruments: API4000 LC-MS/MS
Chromatography column: Agilent XDB C18 (2.1×50 mm, 5 μm)
Blood sampling in rats: animals were fixed, tails were heated with water-bath at 10 min before each time point, about 100 μl of blood was collected via caudal vein, and the collected blood samples were placed in heparin sodium-containing anticoagulation tubes. The blood samples were centrifuged at 4° C. and 8,000 rpm for 6 min to obtain blood plasma samples, in which the blood plasma samples should be prepared with 30 min after blood sampling. The blood plasmas were stored in refrigerator with −80° C.
(1) Samples to be tested were taken out from refrigerator (−80° C.), melt at room temperature, then subjected to volution for 5 min;
(2) 20 μl of sample was precisely moved to 1.5 ml centrifuge tube;
(3) 200 μl of internal standard solution was added;
(4) After 5 min of volution, 5 min of centrifugation (12,000 rpm) was carried out;
(5) 100 μl of supernatant was precisely taken, 100 μl of water was added, subjected to volution for 5 min, and analyzed by LC-MS/MS.
Concentrations of samples to be tested (blood plasma samples) were the output results of Analyst 1.5.1 of AB SCIEX (Shanghai Aibocaisi Analytical Instruments Trading Co., Ltd.). Mean values, standard deviations and parameters such as variable coefficients were calculated by Microsoft Excel (when parameters were directly given by Analyst 1.5.1, they were not calculated). PK parameters were calculated using Pharsight Phoenix 6.1 software.
For data set [2] the following is noted: cited from earlier work.
Another data set addresses PDE-5A (Homo sapiens (Human), UniProt O76074). As to the kind of experiment: Caliper Mobility-Shift PDE-5A Assay. The data set is classed as biochemical. The settings on record: for pIC50: test compound, read-out: IC50 values for PDE-5A, PDE-5A. How it is done: Caliper Mobility-Shift PDE-5A Assay:
A sample to be tested is precisely weighed, dissolved by adding DMSO, mixed sufficiently to form 10 mM solution.
The maximum final concentration of the compound was 10 μM. After incubation at 30° C. for 1 h, 20 μl of 70 μM EDTA was added to terminate reaction. Substrate and products were separated and analyzed by electrophoresis. Conversion rate was calculated by Caliper's Reviewer software, and inhibition rate was calculated by the following formulation, and IC50 was calculated from inhibition rate using Prism 5.0. Inhibition rate=[conversion rate (ZPE)−conversion rate (sample)]×100/[conversion rate (ZPE)−conversion rate (HPE)]
Notation: HPE: blank control without adding enzyme; ZPE: blank control without adding compound.

The test system of the next data set is New Zealand rabbits. Nature of the data set: Effects on penis length (AUC) by intravenous administration in New Zealand rabbits. The data set is classed as in vivo. The settings on record: 10 mg/kg IV, sodium nitroprusside 0.2 mg/kg IV 5 min after administration. The text has this:
New Zealand rabbits were subjected to adapt environment, and the rabbits were catched everyday before experiment so that the rabbits were used to repeated catching operation, then administration and stimulation were lunched. The animals were randomly divided according to bodyweight, samples to be tested were separately dissolved with solvent (Table 3 group: Avanafil and Compound 19 were separately dissolved with 5% DMSO+30% Cremophor EL+65% water for injection; Table 4 group, Table 5 group: Avanafil, Compound 14, Compound 17 and Compound 7 were separately dissolved with 45% DMA+20% Cremophor EL+35% water for injection; Table 6 group: Avanafil and Compound 15 were separately dissolved with 30% DMF+50% PEG-400+20% water for injection), corresponding samples to be tested were injected via ear flange veins of these groups, Table 3, Table 4, Table 5, Table 6 groups all had dose of 10 mg/kg, administration volume of 2 ml/kg, 0.2 mg/kg of sodium nitroprusside was intravenously injected in administration volume of 0.5 ml/kg after 5 min of administration.
Lengths of penis of rabbits were measured by digital vernier caliper separately before administration and at 5, 10, 15, 30, 50, 60, 90 and 120 min after administration. During each measurement, touching between penis and vernier caliper should be avoided.

The target of another data set is PDE-11 (Homo sapiens (Human), UniProt Q9HCR9). Conditions: background art; cited from earlier work.
Chain of PDE-11 (Q9HCR9 whole entry): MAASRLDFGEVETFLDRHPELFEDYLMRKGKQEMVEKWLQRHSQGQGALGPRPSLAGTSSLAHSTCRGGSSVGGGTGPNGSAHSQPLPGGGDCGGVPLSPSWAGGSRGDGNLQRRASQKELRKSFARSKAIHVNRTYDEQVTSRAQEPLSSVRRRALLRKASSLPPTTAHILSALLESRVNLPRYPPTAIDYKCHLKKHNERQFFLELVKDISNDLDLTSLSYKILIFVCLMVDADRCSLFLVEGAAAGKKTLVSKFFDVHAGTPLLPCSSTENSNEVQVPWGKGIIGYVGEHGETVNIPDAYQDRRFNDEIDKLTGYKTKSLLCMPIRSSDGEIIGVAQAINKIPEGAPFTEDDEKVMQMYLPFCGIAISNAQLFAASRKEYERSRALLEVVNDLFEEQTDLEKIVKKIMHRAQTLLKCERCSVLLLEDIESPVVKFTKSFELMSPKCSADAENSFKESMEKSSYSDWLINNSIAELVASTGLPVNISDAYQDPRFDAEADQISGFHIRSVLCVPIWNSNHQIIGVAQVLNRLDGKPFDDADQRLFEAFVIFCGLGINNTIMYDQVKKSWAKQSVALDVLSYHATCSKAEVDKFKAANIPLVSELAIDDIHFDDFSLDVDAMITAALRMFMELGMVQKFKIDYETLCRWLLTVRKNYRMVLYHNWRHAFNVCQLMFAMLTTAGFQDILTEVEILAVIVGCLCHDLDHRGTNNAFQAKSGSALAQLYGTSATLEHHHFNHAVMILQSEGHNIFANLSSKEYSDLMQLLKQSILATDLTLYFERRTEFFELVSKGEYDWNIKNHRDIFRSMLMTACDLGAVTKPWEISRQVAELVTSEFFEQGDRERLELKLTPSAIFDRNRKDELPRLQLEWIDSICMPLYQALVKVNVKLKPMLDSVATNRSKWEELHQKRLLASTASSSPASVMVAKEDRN
Another data set deals with PDE-6. Conditions: background art, cited from earlier work.
[3] abbreviates: Table 3 group, 5% DMSO+30% Cremophor EL+65% water for injection.
Setting [4] is: Table 4 group, 45% DMA+20% Cremophor EL+35% water for injection.
The mark [5] stands for this setting: Table 5 group, 45% DMA+20% Cremophor EL+35% water for injection.
Setting [6] is: Table 6 group, 30% DMF+50% PEG-400+20% water for injection.

Data on 22 molecules can be found in patent publication US8980904B2, “Heterocyclic substituted pyrimidine compound” (Xuanzhu Pharma Co., Ltd., priority 2011, dated 2015).

pIC50: −log10 of the molar value. Values joined by “and” are separate entries in the source; they are usually repeats but may differ in a detail not shown here. Equal entries are not always repeated. Where two headings read alike, the source gives them in different places.

For `COc1ccc(CN=c2[nH]c(N3CCC[C@H]3CO)ncc2C(=O)NCc2ncccn2)cc1Cl` [Avanafil, reference compound], the half-life – broadly, how long it takes for the measured level to halve – in data set [1] (iv, 2 mg/kg) was 0.53 h; in data set [1] (po, 2 mg/kg), 0.51 h. Besides, the “half-life in human body” value in data set [2] is “about 1.2 h”. For the same molecule, the IC50 at PDE-5A (Avanafil control value given, read-out: IC50 values for PDE-5A, Avanafil/PDE-5A) was 10.8 nM (11×) and 19.2 nM and 12.7 nM (2×) and 17.3 nM (4×). Also, the “Effects on penis length, AUC (mm × min)” value with New Zealand rabbits (setting [3]) turned out to be 155.1 mm × min; in the data set on New Zealand rabbits (setting [4]), 132.3 mm × min; in the data set with New Zealand rabbits (setting [5]), 168.3 mm × min; in the data set with New Zealand rabbits (setting [6]), 146.4 mm × min. Moreover, the “inhibition of PDE-11” value on PDE-11 is on record as “does not inhibit PDE-11”. Moreover, the “ratio of PDE-6/5” value in the data set with PDE-6 (selectivity) is given as “about 120”.

In data set [1] (iv, 1 mg/kg), `COc1ccc(COc2nc(N3CC4CC4C3)ncc2C(=O)NCc2ccccc2)cc1Cl` (stereo not drawn) [Compound 1, N-benzyl-2-(3-azadicyclo[3.1.0]hexan-3-yl)-4-(3-chloro-4-methoxybenzyloxy) pyrimidine-5-carboxamide] had a half-life of 3.96 h. At PDE-5A, the pIC50 – broadly, the negative decadic logarithm of the IC50, by convention in mol/L – is 9.76.

`COc1ccc(COc2nc(N3CC4CC4C3)ncc2C(=O)NCc2ncccn2)cc1Cl` (stereo not drawn) [Compound 3, 2-(3-azadicyclo[3.1.0]hexan-3-yl)-4-(3-chloro-4-methoxy-benzyloxy)-N-(pyrimidin-2-ylmethyl)pyrimidine-5-carboxamide]: the negative logarithm of the IC50 (pIC50) on PDE-5A is 10.00.

As to `COc1ccc(COc2nc(N3CC4CC4C3)ncc2C(=O)NCc2ccccn2)cc1Cl` (stereo not drawn) [Compound 4, 2-(3-azadicyclo[3.1.0]hexan-3-yl)-4-(3-chloro-4-methoxybenzyloxy)-N-(pyridin-2-ylmethyl)pyrimidine-5-carboxamide], the half-life in data set [1] (iv, 1 mg/kg) is 0.66 h. Further, the negative logarithm of the IC50 (pIC50) at PDE-5A was 10.55.

On to `COc1ccc(COc2nc(N3CC4CC4C3)ncc2C(=O)NCc2cnc(C)cn2)cc1Cl` (stereo not drawn) [Compound 5, 2-(3-azadicyclo[3.1.0]hexan-3-yl)-4-(3-chloro-4-methoxy-benzyloxy)-N-[(5-methylpyrazin-2-yl)methyl]pyrimidine-5-carboxamide], for which, on PDE-5A, the negative-log IC50 (pIC50) is 9.28.

In turn, `COc1ccc(COc2nc(N3CC4CC4C3)ncc2C(=O)NCc2ccc(F)cc2)cc1Cl` (stereo not drawn) [Compound 6, 2-(3-azadicyclo[3.1.0]hexan-3-yl)-4-(3-chloro-4-methoxy-benzyloxy)-N-(4-fluorobenzyl)pyrimidine-5-carboxamide] showed a half-life in data set [1] (iv, 1 mg/kg) of 1.74 h. The pIC50 at PDE-5A was 10.12.

For `COc1ccc(COc2nc(N3CC4CC4C3)ncc2C(=O)N[C@H]2CC[C@H](O)CC2)cc1Cl` (stereo partly drawn) [Compound 7, 2-(3-azadicyclo[3.1.0]hexan-3-yl)-4-(3-chloro-4-methoxy-benzyloxy)-N-[(trans)-4-hydroxycyclohexyl]pyrimidine-5-carboxamide], the half-life was 1.02 h in data set [1] (iv, 2 mg/kg) and 1.59 h in data set [1] (po, 4 mg/kg). In addition, the pIC50 on PDE-5A was 9.13. Also, the “Effects on penis length, AUC (mm × min)” value with New Zealand rabbits (setting [5]) is recorded as 191.5 mm × min.

`COc1ccc(COc2nc(N3CCC4(CC3)CC4)ncc2C(=O)NCc2ncccn2)cc1Cl` [Compound 8, 4-(3-chloro-4-methoxybenzyloxy)-N-(pyrimidin-2-ylmethyl)-2-(6-azaspiro[2.5]octan-6-yl)pyrimidine-5-carboxamide]: the half-life in data set [1] (iv, 1 mg/kg) is 1.34 h. Moreover, at PDE-5A, the pIC50 was 9.32.

`COc1ccc(COc2nc(N3CCC4(CC3)CC4)ncc2C(=O)NCc2ccccn2)cc1Cl` [Compound 9, 4-(3-chloro-4-methoxybenzyloxy)-N-(pyridin-2-ylmethyl)-2-(6-azaspiro[2.5]octan-6-yl)pyrimidine-5-carboxamide]: at PDE-5A, the pIC50 was 9.73.

On to `COc1ccc(COc2nc(N3CCC4(CC3)CC4)ncc2C(=O)NCc2ccccc2)cc1Cl` [Compound 10, N-benzyl-4-(3-chloro-4-methoxybenzyloxy)-2-(6-azaspiro[2.5]octan-6-yl)pyrimidine-5-carboxamide], for which the half-life in data set [1] (iv, 1 mg/kg) was 2.35 h. The pIC50 on PDE-5A was 8.94.

On to `COc1ccc(COc2nc(N3CCC4(CC3)CC4)ncc2C(=O)NCCN2CCOCC2)cc1Cl` [Compound 11, 4-(3-chloro-4-methoxybenzyloxy)-N-(2-morpholinylethyl)-2-(6-azaspiro[2.5]octan-6-yl)pyrimidine-5-carboxamide], for which, at PDE-5A, the pIC50 was 9.03.

Take `COc1ccc(COc2nc(N3CCC4(CC3)CC4)ncc2C(=O)N[C@H]2CC[C@H](O)CC2)cc1Cl` [Compound 12, 4-(3-chloro-4-methoxybenzyloxy)-N-[(trans)-4-hydroxycyclohexyl]-2-(6-azaspiro[2.5]octan-6-yl)pyrimidine-5-carboxamide]: the half-life in data set [1] (iv, 1 mg/kg) is 1.44 h; in data set [1] (po, 1 mg/kg), 1.94 h. In addition, the negative logarithm of the IC50 (pIC50) on PDE-5A is 9.14.

Consider `COc1ccc(COc2nc(N3CC4CC4C3)ncc2C(=O)NCCN2CCOCC2)cc1Cl` (stereo not drawn) [Compound 13, 2-(3-azadicyclo[3.1.0]hexan-3-yl)-4-(3-chloro-4-methoxy-benzyloxy)-N-(2-morpholinylethyl)pyrimidine-5-carboxamide], for which, on PDE-5A, the pIC50 is 9.67.

On to `COc1ccc(COc2nc(N3CCCC34CC4)ncc2C(=O)NCc2ccccc2)cc1Cl` [Compound 14, N-benzyl-4-(3-chloro-4-methoxybenzyloxy)-2-(4-azaspiro[2.4]heptan-4-yl)-pyrimidine-5-carboxamide], for which the half-life in data set [1] (iv, 1 mg/kg) is 2.21 h. For the same molecule, the negative logarithm of the IC50 (pIC50) at PDE-5A is 8.70. Moreover, in the data set on New Zealand rabbits (setting [5]), the “Effects on penis length, AUC (mm × min)” value was 290.1 mm × min.

As for `COc1ccc(COc2nc(N3CCC4(CC4)C3)ncc2C(=O)NCc2ccccc2)cc1Cl` [Compound 15, N-benzyl-4-(3-chloro-4-methoxybenzyloxy)-2-(5-azaspiro[2.4]heptan-5-yl)-pyrimidine-5-carboxamide], the half-life in data set [1] (iv, 1 mg/kg) was 3.32 h. Moreover, the pIC50 on PDE-5A is 9.93. The “Effects on penis length, AUC (mm × min)” value with New Zealand rabbits (setting [6]) was 339.3 mm × min.

For `COc1ccc(COc2nc(N3CCC4(CC4)C3)ncc2C(=O)NCc2ccc(F)cc2)cc1Cl` [Compound 17, 4-(3-chloro-4-methoxybenzyloxy)-N-(4-fluorobenzyl)-2-(5-azaspiro[2.4]heptan-5-yl)pyrimidine-5-carboxamide], the half-life was 1.64 h in data set [1] (iv, 1 mg/kg) and 3.26 h in data set [1] (po, 2 mg/kg). For the same molecule, the pIC50 on PDE-5A is 8.68. The “Effects on penis length, AUC (mm × min)” value in the data set on New Zealand rabbits (setting [4]) was 300.9 mm × min.

Consider `COc1ccc(COc2nc(N3CCC4(CC4)C3)ncc2C(=O)NCc2ncccn2)cc1Cl` [Compound 18, 4-(3-chloro-4-methoxybenzyloxy)-N-(pyrimidin-2-ylmethyl)-2-(5-azaspiro[2.4]heptan-5-yl)-pyrimidine-5-carboxamide], for which the negative logarithm of the IC50 (pIC50) on PDE-5A is 8.84.

Turning to `COc1ccc(COc2nc(N3CCC4(CC4)C3)ncc2C(=O)N[C@H]2CC[C@H](O)CC2)cc1Cl` [Compound 19, 4-(3-chloro-4-methoxybenzyloxy)-N-[(trans)-4-hydroxycyclohexyl]-2-(5-azaspiro[2.4]heptan-5-yl)-pyrimidine-5-carboxamide], the half-life in data set [1] (iv, 1 mg/kg) was 1.17 h; in data set [1] (po, 2 mg/kg), 1.97 h. The negative-log IC50 (pIC50) on PDE-5A is 8.39. In the data set with New Zealand rabbits (setting [3]), the “Effects on penis length, AUC (mm × min)” value was 523.3 mm × min.

As for `COc1ccc(COc2nc(N3CCCC34CC4)ncc2C(=O)N[C@H]2CC[C@H](O)CC2)cc1Cl` [Compound 20, 4-(3-chloro-4-methoxybenzyloxy)-N-[(trans)-4-hydroxycyclohexyl]-2-(4-azaspiro[2.4]heptan-4-yl)pyrimidine-5-carboxamide], the half-life in data set [1] (iv, 1 mg/kg) was 0.87 h.

Regarding `CCCc1nn(C)c2c(=O)[nH]c(-c3cc(S(=O)(=O)N4CCN(C)CC4)ccc3OCC)nc12` [Sildenafil], in the data set on PDE-6, the “inhibition of PDE-6” value was “inhibit PDE-6 to some extent”.

With `CN1CC(=O)N2[C@H](c3ccc4c(c3)OCO4)c3[nH]c4ccccc4c3C[C@@H]2C1=O` [Tadalafil], in data set [2], the “half-life in human body” value was “about 16 h”.

With `CCCc1nc(C)c2c(=O)[nH]c(-c3cc(S(=O)(=O)N4CCN(CC)CC4)ccc3OCC)nn12` [Vardenafil], the “inhibition of PDE-6” value in the data set on PDE-6 is recorded as “inhibit PDE-6 to some extent”.
